These are literature values, as cited in patent publication US8143269B2, “Inhibitors of store operated calcium release” (Calcimedica, Inc., priority 2008, dated 2012).

In series [1] the target is STIM1 and Orai1 in human embryonic kidney 293 cells (HEK293 cells) (Homo sapiens, UniProt Q96D31). Particulars: HEK293 cells coexpressing STIM1 and Orai1.
Series [2] concerns Jurkat cells.
Series [3] concerns colon cancer cells.

STIM1 and Orai1 in human embryonic kidney 293 cells (HEK293 cells), sequence (Q96D31 whole entry): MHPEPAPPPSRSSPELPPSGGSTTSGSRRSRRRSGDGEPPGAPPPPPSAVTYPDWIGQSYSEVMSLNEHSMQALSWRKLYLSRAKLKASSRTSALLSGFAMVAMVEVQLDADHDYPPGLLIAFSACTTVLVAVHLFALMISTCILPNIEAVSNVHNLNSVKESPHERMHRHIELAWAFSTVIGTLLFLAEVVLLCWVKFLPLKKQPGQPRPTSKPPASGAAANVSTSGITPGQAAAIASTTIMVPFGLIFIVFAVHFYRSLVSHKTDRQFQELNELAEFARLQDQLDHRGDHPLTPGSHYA

Consider `NCCOB(c1ccccc1)c1ccccc1` [2-aminoethoxydiphenylborate], for which the “block of store-dependent Ca2+ entry” value in series [1] is listed as “completely blocked”.

On to `Cc1nnsc1C(=O)Nc1ccc(-n2nc(C(F)(F)F)cc2C(F)(F)F)cc1` [BTP-2], for which the “inhibition of SOCE” value in series [2] and in series [3] was “inhibits” in each case. The inhibition of proliferation entry in series [2] and in series [3] was “inhibits” each time.
